{
  "source": "EPA's ToxRefDB 2",
  "key": {"rat [1]": {"test_system": "rat", "conditions": "Prenatal developmental toxicity study, sprague dawley, Oral, Gavage/Intubation, dose end: 15 GD"}, "rat [2]": {"test_system": "rat", "conditions": "Subchronic dermal toxicity, sprague dawley, Topical, dose end: 13 week, group: systemic, systemic / in life observation / clinical signs / erythema"}, "dog": {"test_system": "dog", "conditions": "Chronic toxicity; beagle; Oral; Feed; dose end: 53 week; group: cholinesterase; cholinesterase / cholinesterase / cholinesterase / erythrocyte cholinesterase (che) + cholinesterase / cholinesterase / cholinesterase / …"}, "mouse [3]": {"test_system": "mouse", "conditions": "Combined chronic toxicity/carcinogenicity, b6c3f1, Oral, Feed, dose end: 102 week"}, "rabbit [4]": {"test_system": "rabbit", "conditions": "Prenatal developmental toxicity study, dutch, Oral, Gavage/Intubation, dose end: 18 GD"}, "rat [5]": {"test_system": "rat", "conditions": "Combined chronic toxicity/carcinogenicity, fischer, Oral, Feed, dose end: 2 year"}, "rabbit [6]": {"test_system": "rabbit", "conditions": "Prenatal developmental toxicity study, chinchilla, Oral, Gavage/Intubation, dose end: 18 GD"}, "rat [7]": {"test_system": "rat", "conditions": "Subchronic oral toxicity in rodents, fischer, Feed, dose end: 13 week, group: systemic, systemic / in life observation / body weight / body weight"}, "rat [8]": {"test_system": "rat", "conditions": "Multigenerational reproductive toxicity study, sprague dawley, Oral, Feed, dose end: 2 generation"}, "mouse [9]": {"test_system": "mouse", "conditions": "Combined chronic toxicity/carcinogenicity, b6c3f1, Oral, Feed, dose end: 2 year, group: systemic"}, "[10]": {"conditions": "group: developmental, systemic / in life observation / body weight / fetal weight"}, "[11]": {"conditions": "group: maternal, reproductive / reproductive performance / resorptions / resorptions"}, "[12]": {"conditions": "group: maternal, systemic / in life observation / body weight / body weight gain + systemic / in life observation / clinical signs / abnormal movements + …"}, "[13]": {"conditions": "group: cholinesterase, cholinesterase / cholinesterase / cholinesterase / plasma cholinesterase (che)"}, "[14]": {"conditions": "group: systemic, systemic / in life observation / body weight / body weight"}, "[15]": {"conditions": "group: systemic, systemic / in life observation / body weight / body weight + systemic / clinical chemistry / cholesterol / cholesterol + systemic / organ …"}, "[16]": {"conditions": "group: cholinesterase, cholinesterase / cholinesterase / cholinesterase / brain cholinesterase (che) + cholinesterase / cholinesterase / cholinesterase / …"}, "[17]": {"conditions": "group: developmental, systemic / in life observation / body weight / fetal weight + developmental / developmental malformation / bone / unossified"}, "[18]": {"conditions": "group: maternal, systemic / in life observation / clinical signs / soft stools"}, "[19]": {"conditions": "group: maternal, systemic / in life observation / clinical signs / soft stools + reproductive / reproductive performance / resorptions / resorptions + …"}, "[20]": {"conditions": "group: systemic, systemic / in life observation / clinical signs / alopecia + systemic / in life observation / clinical signs / soft stools + systemic / in …"}, "[21]": {"conditions": "group: maternal, reproductive / reproductive performance / resorptions / resorptions + reproductive / reproductive performance / aborted / aborted + …"}, "[22]": {"conditions": "group: offspring, developmental / offspring survival late / [other] / [other] + developmental / offspring survival late / viability index / viability index + …"}, "[23]": {"conditions": "group: parental, systemic / pathology microscopic / epididymis / vacuolization"}, "[24]": {"conditions": "group: parental, systemic / pathology microscopic / epididymis / vacuolization + systemic / organ weight / epididymis / absolute"}, "[25]": {"conditions": "group: reproductive, reproductive / offspring survival early / birth index / birth index + reproductive / reproductive performance / fertility / fertility + …"}, "[26]": {"conditions": "systemic / in life observation / clinical signs / fur (altered appearance) + systemic / pathology microscopic / skin / fibrosarcoma + …"}, "[27]": {"conditions": "systemic / pathology microscopic / skin / fibrosarcoma + systemic / pathology microscopic / skin / rhabdomyosarcoma + systemic / in life …"}},
  "data": [
    {"compound": "O=[N+]([O-])C(CO)(CO)CO", "note": "[2-(Hydroxymethyl)-2-nitro-1,3-propanediol]", "values": [
      {"measurement": "LEL", "setting": "rat [1]; [10]", "result": 750, "unit": "mg/kg/day"},
      {"measurement": "LOAEL", "setting": "rat [1]; [10]", "result": "> 750", "unit": "mg/kg/day"},
      {"measurement": "NEL", "setting": "rat [1]; [10]", "result": 375, "unit": "mg/kg/day"},
      {"measurement": "NOAEL", "setting": "rat [1]; [10]", "result": "≥ 750", "unit": "mg/kg/day"},
      {"measurement": "LEL", "setting": "rat [1]; [11]", "result": 375, "unit": "mg/kg/day"},
      {"measurement": "LOAEL", "setting": "rat [1]; [12]", "result": 750, "unit": "mg/kg/day"},
      {"measurement": "NEL", "setting": "rat [1]; [12]", "result": 50, "unit": "mg/kg/day"},
      {"measurement": "NOAEL", "setting": "rat [1]; [12]", "result": 375, "unit": "mg/kg/day"},
      {"measurement": "LEL", "setting": "rat [2]", "result": 1000, "unit": "mg/kg/day"},
      {"measurement": "LOAEL", "setting": "rat [2]", "result": "> 1000", "unit": "mg/kg/day"},
      {"measurement": "NEL", "setting": "rat [2]", "result": 500, "unit": "mg/kg/day"},
      {"measurement": "NOAEL", "setting": "rat [2]", "result": "≥ 1000", "unit": "mg/kg/day"}
    ]},
    {"compound": "COP(=S)(OC)Oc1ccc(SC)c(C)c1", "note": "[Fenthion]", "values": [
      {"measurement": "LEL", "setting": "dog", "result": 0.258, "unit": "mg/kg/day"},
      {"measurement": "LOAEL", "setting": "dog", "result": 0.258, "unit": "mg/kg/day"},
      {"measurement": "NEL", "setting": "dog", "result": 0.056, "unit": "mg/kg/day"},
      {"measurement": "NOAEL", "setting": "dog", "result": 0.056, "unit": "mg/kg/day"},
      {"measurement": "LEL", "setting": "mouse [3]; [13]", "result": 0.03, "unit": "mg/kg/day"},
      {"measurement": "LOAEL", "setting": "mouse [3]; [13]", "result": 0.03, "unit": "mg/kg/day"},
      {"measurement": "NEL", "setting": "mouse [3]; [13]", "result": "< 0.03", "unit": "mg/kg/day"},
      {"measurement": "NOAEL", "setting": "mouse [3]; [13]", "result": "< 0.03", "unit": "mg/kg/day"},
      {"measurement": "LEL", "setting": "mouse [3]; [14]", "result": 1.95, "unit": "mg/kg/day"},
      {"measurement": "LOAEL", "setting": "mouse [3]; [14]", "result": 1.95, "unit": "mg/kg/day"},
      {"measurement": "NEL", "setting": "mouse [3]; [15]", "result": 0.4, "unit": "mg/kg/day"},
      {"measurement": "NOAEL", "setting": "mouse [3]; [15]", "result": 0.4, "unit": "mg/kg/day"},
      {"measurement": "LEL", "setting": "rabbit [4]; [16]", "result": 2.75, "unit": "mg/kg/day"},
      {"measurement": "LOAEL", "setting": "rabbit [4]; [16]", "result": 2.75, "unit": "mg/kg/day"},
      {"measurement": "NEL", "setting": "rabbit [4]; [16]", "result": 1, "unit": "mg/kg/day"},
      {"measurement": "NOAEL", "setting": "rabbit [4]; [16]", "result": 1, "unit": "mg/kg/day"},
      {"measurement": "LEL", "setting": "rabbit [4]; [10]", "result": 2.75, "unit": "mg/kg/day"},
      {"measurement": "LOAEL", "setting": "rabbit [4]; [17]", "result": "> 7.5", "unit": "mg/kg/day"},
      {"measurement": "NEL", "setting": "rabbit [4]; [17]", "result": 1, "unit": "mg/kg/day"},
      {"measurement": "NOAEL", "setting": "rabbit [4]; [17]", "result": "≥ 7.5", "unit": "mg/kg/day"},
      {"measurement": "LEL", "setting": "rabbit [4]; [18]", "result": 2.75, "unit": "mg/kg/day"},
      {"measurement": "LOAEL", "setting": "rabbit [4]; [18]", "result": 2.75, "unit": "mg/kg/day"},
      {"measurement": "NEL", "setting": "rabbit [4]; [19]", "result": 1, "unit": "mg/kg/day"},
      {"measurement": "NOAEL", "setting": "rabbit [4]; [19]", "result": 1, "unit": "mg/kg/day"},
      {"measurement": "LEL", "setting": "rat [5]; [16]", "result": 0.07, "unit": "mg/kg/day"},
      {"measurement": "LOAEL", "setting": "rat [5]; [16]", "result": 0.07, "unit": "mg/kg/day"},
      {"measurement": "NEL", "setting": "rat [5]; [16]", "result": "< 0.07", "unit": "mg/kg/day"},
      {"measurement": "NOAEL", "setting": "rat [5]; [16]", "result": "< 0.07", "unit": "mg/kg/day"},
      {"measurement": "LEL", "setting": "rat [5]; [20]", "result": 0.3, "unit": "mg/kg/day"},
      {"measurement": "LOAEL", "setting": "rat [5]; [20]", "result": 0.3, "unit": "mg/kg/day"},
      {"measurement": "NEL", "setting": "rat [5]; [20]", "result": 0.07, "unit": "mg/kg/day"},
      {"measurement": "NOAEL", "setting": "rat [5]; [20]", "result": 0.07, "unit": "mg/kg/day"},
      {"measurement": "LEL", "setting": "rabbit [6]; [10]", "result": 18, "unit": "mg/kg/day"},
      {"measurement": "LOAEL", "setting": "rabbit [6]; [10]", "result": 18, "unit": "mg/kg/day"},
      {"measurement": "NEL", "setting": "rabbit [6]; [10]", "result": 6, "unit": "mg/kg/day"},
      {"measurement": "NOAEL", "setting": "rabbit [6]; [10]", "result": 6, "unit": "mg/kg/day"},
      {"measurement": "LEL", "setting": "rabbit [6]; [11]", "result": 6, "unit": "mg/kg/day"},
      {"measurement": "LOAEL", "setting": "rabbit [6]; [11]", "result": 6, "unit": "mg/kg/day"},
      {"measurement": "NEL", "setting": "rabbit [6]; [21]", "result": 2, "unit": "mg/kg/day"},
      {"measurement": "NOAEL", "setting": "rabbit [6]; [21]", "result": 2, "unit": "mg/kg/day"},
      {"measurement": "LEL", "setting": "rat [7]", "result": 16, "unit": "mg/kg/day"},
      {"measurement": "LOAEL", "setting": "rat [7]", "result": 16, "unit": "mg/kg/day"},
      {"measurement": "NEL", "setting": "rat [7]", "result": 8, "unit": "mg/kg/day"},
      {"measurement": "NOAEL", "setting": "rat [7]", "result": 8, "unit": "mg/kg/day"},
      {"measurement": "LEL", "setting": "rat [8]; [16]", "result": 0.7, "unit": "mg/kg/day"},
      {"measurement": "LOAEL", "setting": "rat [8]; [16]", "result": 0.7, "unit": "mg/kg/day"},
      {"measurement": "NEL", "setting": "rat [8]; [16]", "result": 0.1, "unit": "mg/kg/day"},
      {"measurement": "NOAEL", "setting": "rat [8]; [16]", "result": 0.1, "unit": "mg/kg/day"},
      {"measurement": "LEL", "setting": "rat [8]; [22]", "result": 5, "unit": "mg/kg/day"},
      {"measurement": "LOAEL", "setting": "rat [8]; [22]", "result": "> 5", "unit": "mg/kg/day"},
      {"measurement": "NEL", "setting": "rat [8]; [22]", "result": 0.7, "unit": "mg/kg/day"},
      {"measurement": "NOAEL", "setting": "rat [8]; [22]", "result": "≥ 5", "unit": "mg/kg/day"},
      {"measurement": "LEL", "setting": "rat [8]; [23]", "result": 0.7, "unit": "mg/kg/day"},
      {"measurement": "LOAEL", "setting": "rat [8]; [23]", "result": 0.7, "unit": "mg/kg/day"},
      {"measurement": "NEL", "setting": "rat [8]; [24]", "result": 0.1, "unit": "mg/kg/day"},
      {"measurement": "NOAEL", "setting": "rat [8]; [24]", "result": 0.1, "unit": "mg/kg/day"},
      {"measurement": "LEL", "setting": "rat [8]; [25]", "result": 5, "unit": "mg/kg/day"},
      {"measurement": "LOAEL", "setting": "rat [8]; [25]", "result": "> 5", "unit": "mg/kg/day"},
      {"measurement": "NEL", "setting": "rat [8]; [25]", "result": 0.7, "unit": "mg/kg/day"},
      {"measurement": "NOAEL", "setting": "rat [8]; [25]", "result": "≥ 5", "unit": "mg/kg/day"},
      {"measurement": "LOAEL", "setting": "mouse [9]; [26]", "result": "> 3", "unit": "mg/kg/day"},
      {"measurement": "NOAEL", "setting": "mouse [9]; [26]", "result": "≥ 3", "unit": "mg/kg/day"},
      {"measurement": "LEL", "setting": "mouse [9]; [27]", "result": 1.5, "unit": "mg/kg/day"},
      {"measurement": "NEL", "setting": "mouse [9]; [27]", "result": "< 1.5", "unit": "mg/kg/day"}
    ]}
  ]
}
